Consider 14 compounds from patent US20220389013A1, “PYRIDOPYRIMIDINONE COMPOUNDS AND APPLICATIONS THEREOF” (BeBetter Med Inc., priority 2020, published 2022).

One data set has as its system H358 (KRAS G12C). In words: Tumor cell proliferation inhibition assay (CellTiter-Glo), H358. It is filed as cell-based, Human. The conditions noted are these: 10% fetal bovine serum. Here is the method: (§1) The H358, H23 or MIA-Paca2 cells were digested, centrifuged and resuspended, and the cell density was measured with a Scepter automatic cell counter. Cells were diluted to a solution containing 44,000 cells per milliliter, then added to a 96-well culture plate at 90 μL per well. The 96-well plate was placed in a 5% CO2 incubator at 37° C., and after the cells were cultured for 24 hours, different concentrations of the compounds to be tested were added. Cells were incubated with compounds in the presence of 10% fetal bovine serum for 72 hours. The inhibition of cell growth was assessed by measuring ATP levels by using the CellTiter-Glo Luminescent Cell Viability Assay Kit (details in manufacturer's instructions). In brief, 30 μL of CellTiter-Glo reagent was added to each well and the plate was shaken for 10 minutes to induce cell lysis, then the fluorescent signal was detected and recorded with a Fluoroskan Ascent FL (Thermo). Maximum signal values were obtained from cells treated with DMSO for 72 hours. Minimum signal values were obtained with medium only (zero cell number). Inhibition rate %=(maximum signal value-compound signal value)/(maximum signal value-minimum signal value)×100%. Data were processed by using Graphpad prism5 software. IC50 values were calculated using a sigmoidal dose-response curve.

The next data set concerns MIA-Paca2 (KRAS G12C). The data set can be described thus: Tumor cell proliferation inhibition assay (CellTiter-Glo), MIA-Paca2. It is filed as cell-based, Human. To be noted: 10% fetal bovine serum. On the procedure: as §1
A further data set concerns H23 (KRAS G12C). The data set can be described thus: Tumor cell proliferation inhibition assay (CellTiter-Glo), H23. It is filed as cell-based, Human. The conditions noted are these: 10% fetal bovine serum. Here is the method:
as §1

Data set [1] can be described thus: Pharmacokinetic (PK) experiment in rats by gavage. Format: in vivo. The conditions noted are these: rat, plasma, po, male SD rats, 20 mg/kg; for AUC(0-t): read-out: AUC0-24. Here is the method: Male SD rats, weighing 180-250 g, were fasted overnight before the test and stomach administrated with the test compound at 20 mg/kg. 15 minutes, 30 minutes, and 1, 2, 4, 6, 8, and 24 hours after administration, blood was taken from the end of the tail of the fracture, about 0.3 mL per time point, then placed in a centrifuge tube containing K2-EDTA, and centrifuged (2000 g, 10 min, at 4° C.). Plasma was collected and stored in an ultra-low temperature freezer at −80° C. 50 μL of plasma samples were vortexed with 135 μL of acetonitrile (containing 1 μg/mL internal standard) for protein precipitation and centrifuged, and the supernatant was collected for LC-MS/MS analysis.
After the rats oral administrated with the Pyridopyrimidinone compounds provided by the present disclosure, the absorption is good, and the blood exposure is relatively high. […] Cmax refers to the maximum plasma concentration, T1/2 is the half-life, AUC0-24 refers to the area under the 0-24 hour time-concentration curve, and AUC0-inf refers to the area under the 0-Inf time-concentration curve.

`C=CC(=O)N1CCN(c2nc(=O)n(-c3c(C)ccnc3C(C)C)c3nc(-c4c(F)c(F)cc5ccoc45)c(F)cc23)[C@@H](C)C1` (atropisomer, axis not shown; (P)) [Compound 74-2, 4-((S)-4-acryloyl-2-methylpiperazin-1-yl)-7-(5,6-difluorobenzofuran-7-yl)-6-fluoro-1(P)-(2-isopropyl-4-methylpyridin-3-yl)pyrido[2,3-d]pyrimidin-2(1H)-one]: the values for the IC50 with H358 (KRAS G12C) (72 hours), in the data set on MIA-Paca2 (KRAS G12C) (72 hours) and with H23 (KRAS G12C) (72 hours) were over 500 nM, over 500 nM and 100 to 500 nM, respectively.

`C=CC(=O)N1C[C@H](C)N(c2nc(=O)n(-c3c(C)ccnc3C(C)C)c3nc(-c4c(F)ccc5ccoc45)c(Cl)cc23)C[C@H]1C` (atropisomer, axis not shown; (P)) [Compound 90-2, 4-((2S,5R)-4-acryloyl-2,5-dimethylpiperazin-1-yl)-6-chloro-7-(6-fluorobenzofuran-7-yl)-1(P)-(2-isopropyl-4-methylpyridin-3-yl)pyrido[2,3-d]pyrimidin-2(1H)-one] showed a melting point of 152 to 161 °C. Also, in the data set with H358 (KRAS G12C) (72 hours), the IC50 lay within 50 to 100 nM. In the data set on MIA-Paca2 (KRAS G12C) (72 hours), this compound showed an IC50 of 50 to 100 nM. The compound further yielded an IC50 in the data set with H23 (KRAS G12C) (72 hours) of under 10 nM.

For the compound `C=CC(=O)N1CCN(c2nc(=O)n(-c3c(C)ccnc3C(C)C)c3nc(-c4c(F)c(F)cc5ccoc45)c(Cl)cc23)[C@@H](C)C1` (atropisomer, axis not shown; (P)) [Compound 103-2, 4-((S)-4-acryloyl-2-methylpiperazin-1-yl)-6-chloro-7-(5,6-difluorobenzofuran-7-yl)-1(P)-(2-isopropyl-4-methylpyridin-3-yl)pyrido[2,3-d]pyrimidin-2(1H)-one], the IC50 in the data set on H358 (KRAS G12C) (72 hours) fell in the range of 100 to 500 nM; with MIA-Paca2 (KRAS G12C) (72 hours), 100 to 500 nM; in the data set with H23 (KRAS G12C) (72 hours) it was 10 to 50 nM.

Consider `C=CC(=O)N1CCN(c2nc(=O)n(-c3c(C)ccnc3C(C)C)c3nc(-c4c(F)c(F)cc5ccoc45)c(F)cc23)[C@@H](C)C1` [Compound 74, 4-((S)-4-acryloyl-2-methylpiperazin-1-yl)-7-(5,6-difluorobenzofuran-7-yl)-6-fluoro-1-(2-isopropyl-4-methylpyridin-3-yl)pyrido[2,3-d]pyrimidin-2(1H)-one], for which the 50% inhibitory concentration (IC50) in the data set with H358 (KRAS G12C) (72 hours) was 10 to 50 nM; with MIA-Paca2 (KRAS G12C) (72 hours), 50 to 100 nM; with H23 (KRAS G12C) (72 hours) it was under 10 nM.

On to `C=CC(=O)N1C[C@H](C)N(c2nc(=O)n(-c3c(C)ccnc3C(C)C)c3nc(-c4c(F)ccc5ccoc45)c(F)cc23)C[C@H]1C` [Compound 89, 4-((2S,5R)-4-acryloyl-2,5-dimethylpiperazin-1-yl)-6-fluoro-7-(6-fluorobenzofuran-7-yl)-1-(2-isopropyl-4-methylpyridin-3-yl)pyrido[2,3-d]pyrimidin-2(1H)-one], for which the melting point fell in the range of 147 to 149 °C. In addition, in the data set on H358 (KRAS G12C) (Homo sapiens, NCI-H358, 72 h), the IC50 was in the range of 10 to 50 nM. This compound also came in with an IC50 in the data set with MIA-Paca2 (KRAS G12C) (72 hours) of 10 to 50 nM. Further, in data set [1], the AUC(0-inf) worked out at 14100 ng·h/mL, the highest level (Cmax) was 4300 ng/mL, the Tmax is 1 h and the half-life is 2.11 h. In data set [1], the AUC(0-t) was found to be 14000 ng·h/mL.

Regarding `C=CC(=O)N1C[C@H](C)N(c2nc(=O)n(-c3c(C)ccnc3C(C)C)c3nc(-c4c(F)c(F)cc5ccoc45)c(F)cc23)C[C@H]1C` [Compound 91, 4-((2S,5R)-4-acryloyl-2,5-dimethylpiperazin-1-yl)-7-(5,6-difluorobenzofuran-7-yl)-6-fluoro-1-(2-isopropyl-4-methylpyridin-3-yl)pyrido[2,3-d]pyrimidin-2(1H)-one], the results for the 50% inhibitory concentration (IC50) in the data set with H358 (KRAS G12C) (72 hours), in the data set with MIA-Paca2 (KRAS G12C) (72 hours) and in the data set with H23 (KRAS G12C) (72 hours) were 10 to 50 nM, 50 to 100 nM and under 10 nM, respectively.

`C=CC(=O)N1CCN(c2nc(=O)n(-c3c(C)ccnc3C(C)C)c3nc(-c4c(F)ccc5ccoc45)c(Cl)cc23)[C@@H](CC)C1` [Compound 99, 4-((S)-4-acryloyl-2-ethylpiperazin-1-yl)-6-chloro-7-(6-fluorobenzofuran-7-yl)-1-(2-isopropyl-4-methylpyridin-3-yl)pyrido[2,3-d]pyrimidin-2(1H)-one]: the IC50 in the data set on H358 (KRAS G12C) (Homo sapiens, NCI-H358, 72 h) is 50 to 100 nM; in the data set on MIA-Paca2 (KRAS G12C) (Homo sapiens, MIA PaCa-2, 72 h), 100 to 500 nM; with H23 (KRAS G12C) (Homo sapiens, 72 h), under 10 nM.

For `C=CC(=O)N1CCN(c2nc(=O)n(-c3c(C)ccnc3C(C)C)c3nc(-c4c(F)c(F)cc5ccoc45)c(Cl)cc23)[C@@H](C)C1` [Compound 103, 4-((S)-4-acryloyl-2-methylpiperazin-1-yl)-6-chloro-7-(5,6-difluorobenzofuran-7-yl)-1-(2-isopropyl-4-methylpyridin-3-yl)pyrido[2,3-d]pyrimidin-2(1H)-one], the IC50 in the data set on H358 (KRAS G12C) (72 hours) is under 10 nM. In the data set with MIA-Paca2 (KRAS G12C) (72 hours), this compound came in with an IC50 of 10 to 50 nM. For the same compound, the IC50 in the data set on H23 (KRAS G12C) (Homo sapiens, 72 h) was under 10 nM. In data set [1], the AUC(0-inf) turned out to be 9420 ng·h/mL, the concentration peaked (Cmax) at 3310 ng/mL, the Tmax was found to be 1 h and the half-life was 3.77 h. For the same compound, in data set [1], the AUC(0-t) was 9400 ng·h/mL.

In the data set with H358 (KRAS G12C) (72 hours), `C=CC(=O)N1C[C@H](C)N(c2nc(=O)n(-c3c(C)ccnc3C(C)C)c3nc(-c4c(F)c(F)cc5ccoc45)c(Cl)cc23)C[C@H]1C` [Compound 104, 4-((2S,5R)-4-acryloyl-2,5-dimethylpiperazin-1-yl)-6-chloro-7-(5,6-difluorobenzofuran-7-yl)-1-(2-isopropyl-4-methylpyridin-3-yl)pyrido[2,3-d]pyrimidin-2(1H)-one] came in with an IC50 of under 10 nM. In the data set with MIA-Paca2 (KRAS G12C) (72 hours), this compound had an IC50 of 10 to 50 nM. This compound returned a 50% inhibitory concentration (IC50) with H23 (KRAS G12C) (Homo sapiens, 72 h) of under 10 nM. Moreover, in data set [1], the total exposure AUC(0-inf) was 13000 ng·h/mL, the Cmax is 2110 ng/mL, the Tmax came to 2 h and the half-life was 2.46 h. Also, the AUC(0-t) in data set [1] is 13000 ng·h/mL.

`C=CC(=O)N1CCN(c2nc(=O)n(-c3c(C)ncnc3C(C)C)c3nc(-c4c(F)ccc5ccoc45)c(F)cc23)[C@@H](C)C1` [Compound 116, 4-((S)-4-acryloyl-2-methylpiperazin-1-yl)-6-fluoro-7-(6-fluorobenzofuran-7-yl)-1-(4-isopropyl-6-methylpyrimidin-5-yl)pyrido[2,3-d]pyrimidin-2(1H)-one]: the melting point was 143 to 146 °C. The same compound gave an IC50 in the data set with H358 (KRAS G12C) (Homo sapiens, NCI-H358, 72 h) of 50 to 100 nM. In the data set with MIA-Paca2 (KRAS G12C) (Homo sapiens, MIA PaCa-2, 72 h), this compound yielded an IC50 of 100 to 500 nM.

Regarding `C=CC(=O)N1CCN(c2nc(=O)n(-c3c(C)nc(C)nc3C(C)C)c3nc(-c4c(F)ccc5ccoc45)c(F)cc23)[C@@H](C)C1` [Compound 117, 4-((S)-4-acryloyl-2-methylpiperazin-1-yl)-6-fluoro-7-(6-fluorobenzofuran-7-yl)-1-(4-isopropyl-2,6-dimethylpyrimidin-5-yl)pyrido[2,3-d]pyrimidin-2(1H)-one], the melting point was in the range of 133 to 136 °C. This compound registered an IC50 in the data set on H358 (KRAS G12C) (Homo sapiens, NCI-H358, 72 h) of 50 to 100 nM. In addition, the IC50 with MIA-Paca2 (KRAS G12C) (Homo sapiens, MIA PaCa-2, 72 h) was 50 to 100 nM.

For `C=CC(=O)N1CCN(c2nc(=O)n(-c3c(C#N)cccc3C(C)C)c3nc(-c4c(F)ccc5ccoc45)c(F)cc23)[C@@H](C)C1` [Compound 123, 2-(4-((S)-4-acryloyl-2-methylpiperazin-1-yl)-6-fluoro-7-(6-fluorobenzofuran-7-yl)-2-oxopyrido[2,3-d]pyrimidin-1(2H)-yl)-3-isopropylbenzonitrile], the melting point is 146 to 149 °C. This compound also had an IC50 with H358 (KRAS G12C) (Homo sapiens, NCI-H358, 72 h) of 10 to 50 nM. The IC50 in the data set with MIA-Paca2 (KRAS G12C) (Homo sapiens, MIA PaCa-2, 72 h) lay within 50 to 100 nM.

As to `C=CC(=O)N1CCN(c2nc(=O)n(-c3c(C#N)cccc3C(C)C)c3nc(-c4c(F)ccc5ccoc45)c(Cl)cc23)[C@@H](C)C1` [Compound 124, 2-(4-((S)-4-acryloyl-2-methylpiperazin-1-yl)-6-chloro-7-(6-fluorobenzofuran-7-yl)-2-oxopyrido[2,3-d]pyrimidin-1(2H)-yl)-3-isopropylbenzonitrile], the melting point is 164 to 166 °C. For the same compound, the IC50 with H358 (KRAS G12C) (Homo sapiens, NCI-H358, 72 h) was under 10 nM. Also, the IC50 in the data set on MIA-Paca2 (KRAS G12C) (Homo sapiens, MIA PaCa-2, 72 h) lay in the range of 10 to 50 nM.

In turn, `C=CC(=O)N1CCN(c2nc(=O)n(-c3c(CO)cccc3C(C)C)c3nc(-c4c(F)ccc5ccoc45)c(F)cc23)[C@@H](C)C1` [Compound 126, 4-((S)-4-acryloyl-2-methylpiperazin-1-yl)-6-fluoro-7-(6-fluorobenzofuran-7-yl)-1-(2-(hydroxymethyl)-6-isopropylphenyl)pyrido[2,3-d]pyrimidin-2(1H)-one] displayed a melting point of 146 to 149 °C. In the data set with H358 (KRAS G12C) (Homo sapiens, NCI-H358, 72 h), this compound registered an IC50 of 50 to 100 nM. Besides, the IC50 in the data set with MIA-Paca2 (KRAS G12C) (Homo sapiens, MIA PaCa-2, 72 h) is 100 to 500 nM.
